Measurements reported in PubChem BioAssay AID256 (DTP/NCI, 2004).
Values joined by “and” are separate entries in the source; they are usually repeats but may differ in a detail not shown here. Equal values may be shown once. Inconclusive results and toxic doses are left out.

Tested on: CD2F1 mice, L1210 leukemia ip, survival T/C
Test: NCI In Vivo Anticancer Drug Screen. Data for tumor model L1210 Leukemia (intraperitoneal) in CD2F1 (CDF1) mice
Conditions: higher = longer survival
Procedure, shortened: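 Tumor-bearing mice (transplanted tumor) were split into treated and vehicle control groups, and the measured endpoint of each treated group was divided by that of its vehicle controls.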

[1] = endpoint: mean survival time, dose: 75.0 mg/kg/injection, schedule: Q01DX001 (ip), vehicle: other
[2] = endpoint: mean survival time, dose: 150.0 mg/kg/injection, schedule: Q01DX001 (ip), vehicle: other
[3] = endpoint: mean survival time, dose: 300.0 mg/kg/injection, schedule: Q01DX001 (ip), vehicle: other
[4] = endpoint: mean survival time, dose: 100.0 mg/kg/injection, schedule: Q01DX009 (ip), vehicle: saline with Tween-80
[5] = endpoint: mean survival time, dose: 200.0 mg/kg/injection, schedule: Q01DX009 (ip), vehicle: saline with Tween-80

CN1CCN(c2ccc3nc(-c4ccc5nc(-c6ccc(O)cc6)[nH]c5c4)[nH]c3c2)CC1
T/C (endpoint: mean survival time, dose: 6.25 mg/kg/injection, schedule: Q01DX009 (ip), vehicle: saline): 124 % of control | T/C (endpoint: mean survival time, dose: 12.5 mg/kg/injection, schedule: Q01DX009 (ip), vehicle: saline): 124 % of control | T/C (endpoint: mean survival time, dose: 25.0 mg/kg/injection, schedule: Q01DX009 (ip), vehicle: saline): 183 % of control | T/C (endpoint: mean survival time, dose: 50.0 mg/kg/injection, schedule: Q01DX009 (ip), vehicle: saline): 238 % of control and 314 % of control | T/C (endpoint: mean survival time, dose: 100.0 mg/kg/injection, schedule: Q01DX009 (ip), vehicle: saline): 294 % of control | T/C (endpoint: median survival time, dose: 6.25 mg/kg/injection, schedule: Q01DX009 (ip), vehicle: saline): 124 % of control | T/C (endpoint: median survival time, dose: 12.5 mg/kg/injection, schedule: Q01DX009 (ip), vehicle: saline): 117 % of control and 120 % of control | T/C (endpoint: median survival time, dose: 18.0 mg/kg/injection, schedule: Q01DX005 (ip), vehicle: saline): 119 % of control | T/C (endpoint: median survival time, dose: 18.0 mg/kg/injection, schedule: Q01DX005 (iv), vehicle: saline): 116 % of control | T/C (endpoint: median survival time, dose: 37.0 mg/kg/injection, schedule: Q01DX005 (iv), vehicle: saline): 115 % of control | T/C (endpoint: median survival time, dose: 50.0 mg/kg/injection, schedule: Q01DX005 (oral), vehicle: saline): 101 % of control | T/C (endpoint: median survival time, dose: 50.0 mg/kg/injection, schedule: Q01DX009 (ip), vehicle: saline): 226 % of control and 344 % of control | T/C (endpoint: median survival time, dose: 75.0 mg/kg/injection, schedule: Q01DX005 (ip), vehicle: saline): 151 % of control | T/C (endpoint: median survival time, dose: 100.0 mg/kg/injection, schedule: Q01DX005 (oral), vehicle: saline): 96 % of control | T/C (endpoint: median survival time, dose: 150.0 mg/kg/injection, schedule: Q01DX005 (ip), vehicle: saline): 348 % of control | T/C (endpoint: median survival time, dose: 200.0 mg/kg/injection, schedule: Q01DX005 (oral), vehicle: saline): 94 % of control | T/C (endpoint: median survival time, dose: 200.0 mg/kg/injection, schedule: Q01DX009 (ip), vehicle: saline): 116 % of control and 91 % of control | T/C (endpoint: median survival time, dose: 400.0 mg/kg/injection, schedule: Q01DX005 (oral), vehicle: saline): 96 % of control | T/C (endpoint: median survival time, dose: 800.0 mg/kg/injection, schedule: Q01DX005 (oral), vehicle: saline): 94 % of control

O=[N+]([O-])c1ccc(CNc2ncnc3c2ncn3C2OC(CO)C(O)C2O)cc1 (configuration not stated)
T/C [1]: 106 % of control | T/C [2]: 112 % of control | T/C [3]: 100 % of control

CC1(c2ccc(Cl)cc2)OC(=O)C(=Cc2ccc([N+](=O)[O-])s2)C(=O)O1 (configuration not stated)
T/C (endpoint: mean survival time, dose: 6.25 mg/kg/injection, schedule: Q01DX009 (ip), vehicle: saline with Tween-80): 101 % of control | T/C (endpoint: mean survival time, dose: 12.5 mg/kg/injection, schedule: Q01DX009 (ip), vehicle: saline with Tween-80): 98 % of control and 101 % of control | T/C (endpoint: mean survival time, dose: 25.0 mg/kg/injection, schedule: Q01DX009 (ip), vehicle: saline with Tween-80): 96 % of control and 100 % of control | T/C (endpoint: mean survival time, dose: 50.0 mg/kg/injection, schedule: Q01DX009 (ip), vehicle: saline with Tween-80): 100 % of control and 101 % of control | T/C [4]: 102 % of control and 112 % of control | T/C [5]: 97 % of control

Cc1[nH]nc(C(F)(F)F)c1N=NN1CCOCC1
T/C [1]: 100 % of control | T/C [2]: 109 % of control | T/C [3]: 101 % of control

COc1ccc(CCNC(=O)/C=C\C(=O)O)cc1OC
T/C [4]: 106 % of control | T/C (endpoint: mean survival time, dose: 100.0 mg/kg/injection, schedule: Q04DX003 (ip), vehicle: saline with Tween-80): 89 % of control | T/C [5]: 103 % of control | T/C (endpoint: mean survival time, dose: 200.0 mg/kg/injection, schedule: Q04DX003 (ip), vehicle: saline with Tween-80): 103 % of control | T/C (endpoint: mean survival time, dose: 400.0 mg/kg/injection, schedule: Q01DX009 (ip), vehicle: saline with Tween-80): 101 % of control | T/C (endpoint: mean survival time, dose: 400.0 mg/kg/injection, schedule: Q04DX003 (ip), vehicle: saline with Tween-80): 106 % of control

CCOC(=O)c1cc(C(=O)OCC)c2ccc(Br)ccc1-2
T/C (endpoint: mean survival time, dose: 100.0 mg/kg/injection, schedule: Q01DX001 (sc), vehicle: olive oil, sesame oil, peanut oil): 105 % of control | T/C (endpoint: mean survival time, dose: 200.0 mg/kg/injection, schedule: Q01DX001 (sc), vehicle: olive oil, sesame oil, peanut oil): 96 % of control | T/C (endpoint: mean survival time, dose: 400.0 mg/kg/injection, schedule: Q01DX001 (sc), vehicle: olive oil, sesame oil, peanut oil): 93 % of control

C=C1C(=O)OC2CC3(C)CCCC(C)C34OC4C12 (configuration not stated)
T/C (endpoint: mean survival time, dose: 50.0 mg/kg/injection, schedule: Q04DX002 (ip), vehicle: saline): 90 % of control | T/C (endpoint: mean survival time, dose: 100.0 mg/kg/injection, schedule: Q04DX002 (ip), vehicle: saline): 98 % of control | T/C (endpoint: mean survival time, dose: 200.0 mg/kg/injection, schedule: Q04DX002 (ip), vehicle: saline): 114 % of control

c1ccc2c3c(c4c(c2c1)CN(C1CCCCC1)CO4)OCN(C1CCCCC1)C3
T/C (endpoint: median survival time, dose: 0.19 mg/kg/injection, schedule: Q01DX009 (ip), vehicle: other): 101 % of control | T/C (endpoint: median survival time, dose: 0.38 mg/kg/injection, schedule: Q01DX009 (ip), vehicle: other): 101 % of control | T/C (endpoint: median survival time, dose: 0.75 mg/kg/injection, schedule: Q01DX009 (ip), vehicle: other): 98 % of control | T/C (endpoint: median survival time, dose: 1.5 mg/kg/injection, schedule: Q01DX009 (ip), vehicle: other): 98 % of control
